Each structure is given as a SMILES string. Where a name gives a salt, the structure may show the parent alone.

Usually IC50 stands for the midpoint of a concentration-inhibition curve. Higher therefore signals a need for much substance.

In assay [1] the test system is HCT116 (colorectal carcinoma, K Ras G13D) cells. Put plainly: Cell proliferation (Alamar Blue) assay, HCT116. In kind it is cell-based, human. The method, then:
(§1) Cell Proliferation (Alamar Blue) Assay
(§2) HT-29 (colorectal carcinoma, B-RafV600E), HCT116 (colorectal carcinoma, K Ras G13D), A375 (melanoma, B-RafV600E) and SK-Mel2 (melanoma, NRAS Q61R) cells (obtained from ATCC, USA) were seeded (5000 cells/well) in 96-well tissue culture plate and incubated at 37° C./5% CO2 for 16-24 hours. The cells were then treated with compounds, at concentrations typically from 0.0005 to 10 uM prepared in 3-fold serial dilutions. The plates were then incubated for 72 h at 37° C./5% CO2 in a moist environment. Then Alamar Blue™ reagent (final concentration 1×) was added to each well and incubated for 1-3 h at 37° C./5% CO2. The plates were read on fluorescence reader at 540 nm excitation and 590 nm emission wavelengths. The IC50 values were subsequently determined using a sigmoidal dose-response curve (variable slope) using GraphPad Prism® 5 software.
On the technique in general: The colour change of resazurin is a common sign of viable cells or microbes.

The subject of assay [2] is HT-29 (colorectal carcinoma, B-RafV600E) cells. Description: Cell proliferation (Alamar Blue) assay, HT-29. In kind it is cell-based, human. The method, then:
as §1, §2

Setting [3] is: Homo sapiens, HCT-116, HCT116 cells.
The mark [4] stands for this setting: Homo sapiens, HT-29, HT29 cells.

For the compound `Cc1cnc(NC2CC2)nc1-n1cc(NC(=O)N[C@H](CO)c2cccc(Cl)c2)cn1` [Example 3, (S)-1-(1-(3-chlorophenyl)-2-hydroxyethyl)-3-(1-(2-(cyclo-propyl-amino)-5-methyl-pyrimidin-4-yl)-1H-pyrazol-4-yl)urea], the IC50 in assay [1] (setting [3]) and in assay [2] (setting [4]) was more than 2500 nM throughout.
As for `Cc1cnc(Nc2ccccc2)cc1-n1cnc(C(=O)NC(CO)c2ccccc2)c1` (stereo not shown) [Example 89, N-(2-hydroxy-1-phenylethyl)-1-(5-methyl-2-(phenyl-amino)pyridin-4-yl)-1H-imidazole-4-carboxamide], the IC50 in assay [1] (setting [3]) and in assay [2] (setting [4]) was more than 2500 nM each time.
Regarding `Cc1cnc(Nc2ccc3c(c2)OCO3)nc1-n1cc(NC(=O)N[C@@H](CO)c2cccc(Cl)c2)cn1` [Example 51, (R)-1-(1-(2-(benzo[d][1,3]dioxol-5-ylamino)-5-methyl-pyrimidin-4-yl)-1H-pyrazol-4-yl)-3-(1-(3-chloro-phenyl)-2-hydroxy-ethyl)urea], the IC50 in assay [1] (setting [3]) and in assay [2] (setting [4]) was more than 2500 nM in each case.
Regarding `O=C(NC(CO)c1ccccc1)c1ccn(-c2ccnc(Nc3ccc(F)cc3Cl)c2)c1` (stereo not shown) [Example 82, 1-(2-((2-chloro-4-fluorophenyl)amino)pyridin-4-yl)-N-(2-hydroxy-1-phenylethyl)-1H-pyrrole-3-carboxamide], the IC50 in assay [1] (setting [3]) and in assay [2] (setting [4]) was more than 2500 nM in each case.
As for `Cc1cnc(Nc2cccnc2)cc1-n1ccc(C(=O)NC(CO)c2ccccc2)c1` (stereo not shown) [Example 81, N-(2-hydroxy-1-phenylethyl)-1-(5-methyl-2-(pyridin-3-ylamino)pyridin-4-yl)-1H-pyrrole-3-carboxamide], the IC50 in assay [1] (setting [3]) and in assay [2] (setting [4]) was more than 2500 nM in each case.
As for `Cc1cnc(Nc2ccc(F)cc2Cl)nc1-n1cc(C(=O)NC(CO)c2cccc(Cl)c2)cn1` (stereo not shown) [Example 45, 1-(2-((2-chloro-4-fluorophenyl)amino)-5-methyl-pyrimidin-4-yl)-N-(1-(3-chlorophenyl)-2-hydroxy-ethyl)-1H-pyrazole-4-carboxamide], the IC50 in assay [1] (setting [3]) and in assay [2] (setting [4]) was more than 2500 nM in each case.
In the case of `Cc1cnc(Nc2ccc(F)cc2Cl)nc1-n1ccc(C(=O)N[C@H](CO)c2cccc(Cl)c2)c1` [Example 57, (S)-1-(2-((2-chloro-4-fluorophenyl)-amino)-5-methyl-pyrimidin-4-yl)-N-(1-(3-chlorophenyl)-2-hydroxy-ethyl)-1H-pyrrole-3-carboxamide], the IC50 in assay [1] (HCT116 cells) and in assay [2] (HT29 cells) was more than 2500 nM throughout.
In the case of `Cc1cnc(NC2CC2)nc1-n1cc(C(=O)NC(CO)c2cccc(Cl)c2)cn1` (stereo not shown) [Example 40, N-(1-(3-chlorophenyl)-2-hydroxy-ethyl)-1-(2-(cyclopropyl-amino)-5-methyl-pyrimidin-4-yl)-1H-pyrazole-4-carboxamide], the IC50 in assay [1] (setting [3]) and in assay [2] (setting [4]) was more than 2500 nM in each case.
Turning to `Cc1cnc(Nc2ccc3c(c2)OCO3)nc1-n1cc(NC(=O)N[C@H](CO)c2ccccc2)cn1` [Cmpd 55, (S)-1-(1-(2-(benzo[d][1,3]dioxol-5-ylamino)-5-methyl-pyrimidin-4-yl)-1H-pyrazol-4-yl)-3-(2-hydroxy-1-phenylethyl) urea], the IC50 in assay [1] (setting [3]) and in assay [2] (setting [4]) was more than 2500 nM throughout.
For `Cc1cnc(Nc2ccc(F)cc2)cc1-n1cnc(C(=O)NC(CN)c2ccc(F)cc2)c1` (stereo not shown) [Example 230, N-(2-amino-1-(4-fluorophenyl)ethyl)-1-(2-((4-fluorophenyl)amino)-5-methylpyridin-4-yl)-1H-imidazole-4-carboxamide], the IC50 in assay [1] (setting [3]) is more than 2500 nM; in assay [2] (setting [4]) it was 500 to 2500 nM.
In the case of `Cc1cnc(Nc2ccc3c(c2)OCO3)nc1-n1ccc(C(=O)NC(CO)c2cccnc2)c1` (stereo not shown) [Example 103, 1-(2-(benzo[d][1,3]dioxol-5-ylamino)-5-methyl-pyrimidin-4-yl)-N-(2-hydroxy-1-(pyridin-3-yl)ethyl)-1H-pyrrole-3-carboxamide], the IC50 in assay [1] (setting [3]) and in assay [2] (setting [4]) was more than 2500 nM each time.
As for `O=C(Nc1cnn(-c2ccnc(Nc3ccccc3)c2)c1)N[C@@H](CO)c1cccc(Cl)c1` [Example 49, (R)-1-(1-(3-chloro-phenyl)-2-hydroxy-ethyl)-3-(1-(2-(phenylamino)pyridin-4-yl)-1H-pyrazol-4-yl)urea], the IC50 in assay [1] (setting [3]) and in assay [2] (setting [4]) was more than 2500 nM each time.
Consider `Cc1cnc(Nc2ccc(F)c(N3CCOCC3)c2)nc1-n1cnc(C(=O)NC(CO)c2cccc(Cl)c2)c1` (stereo not shown) [Example 223, N-(1-(3-chlorophenyl)-2-hydroxyethyl)-1-(2-((4-fluoro-3-morpholinophenyl)amino)-5-methylpyrimidin-4-yl)-1H-imidazole-4-carboxamide], for which the IC50 in assay [1] (setting [3]) and in assay [2] (setting [4]) was 250 to 500 nM throughout.
As for `Cc1cnc(Nc2ccc(F)cc2)cc1-n1cnc(C(=O)NC(CO)c2ccccc2)c1` (stereo not shown) [Example 222, 1-(2-((4-fluorophenyl)amino)-5-methylpyridin-4-yl)-N-(2-hydroxy-1-phenylethyl)-1H-imidazole-4-carboxamide], the IC50 in assay [1] (setting [3]) and in assay [2] (setting [4]) was more than 2500 nM throughout.
For the compound `NCC(Cc1ccccc1)NC(=O)c1ccn(-c2ccnc(Nc3ccc(F)cc3)c2)c1` (stereo not shown) [Example 119, N-(1-amino-3-phenyl-propan-2-yl)-1-(2-((4-fluoro-phenyl)amino)pyridin-4-yl)-1H-pyrrole-3-carboxamide], the IC50 in assay [1] (setting [3]) and in assay [2] (setting [4]) was more than 2500 nM in each case.
For `CC[C@@H](CO)Nc1ncc(C)c(-n2ccc(C(=O)N[C@@H](CO)c3cccc(Cl)c3)c2)n1` [Example 218, N-((R)-1-(3-chlorophenyl)-2-hydroxyethyl)-1-(2-(((S)-1-hydroxybutan-2-yl)amino)-5-methylpyrimidin-4-yl)-1H-pyrrole-3-carboxamide], the IC50 in assay [1] (setting [3]) and in assay [2] (setting [4]) was more than 2500 nM each time.
For the compound `Cc1cnc(NC2CCOCC2)nc1-n1cnc(C(=O)N[C@@H](CO)c2cccc(Cl)c2)c1` [Example 217, (R)-N-(1-(3-chlorophenyl)-2-hydroxyethyl)-1-(5-methyl-2-((tetrahydro-2H-pyran-4-yl)amino)pyrimidin-4-yl)-1H-imidazole-4-carboxamide], the IC50 in assay [1] (setting [3]) and in assay [2] (setting [4]) was more than 2500 nM in each case.
For the compound `Cc1cnc(Nc2ccc3[nH]cc(C4=CCNCC4)c3c2)nc1-n1ccc(C(=O)NC(CO)c2cccc(Cl)c2)c1` (stereo not shown) [Example 209, N-(1-(3-chlorophenyl)-2-hydroxyethyl)-1-(5-methyl-2-((3-(1,2,3,6-tetrahydropyridin-4-yl)-1H-indol-5-yl)amino)pyrimidin-4-yl)-1H-pyrrole-3-carboxamide hydrochloride], the concentration for half-maximal inhibition (IC50) in assay [1] (setting [3]) and in assay [2] (setting [4]) was more than 2500 nM each time.
As for `Cc1cnc(Nc2ccc3c(c2)OC(F)(F)O3)cc1-n1cnc(C(=O)NC(CN)Cc2ccccc2)c1` (stereo not shown) [Example 99, N-(1-amino-3-phenyl-propan-2-yl)-1-(2-((2,2-difluoro-benzo[d][1,3]dioxol-5-yl)amino)-5-methyl-pyridin-4-yl)-1H-imidazole-4-carboxamide], the half-inhibitory concentration (IC50) in assay [1] (setting [3]) and in assay [2] (setting [4]) was more than 2500 nM throughout.
Regarding `O=C(Nc1cnn(-c2ccnc(Nc3cccnc3)n2)c1)N[C@H](CO)c1cccc(Cl)c1` [Example 24, (S)-1-(1-(3-chlorophenyl)-2-hydroxy-ethyl)-3-(1-(2-(pyridin-3-yl-amino)pyrimidin-4-yl)-1H-pyrazol-4-yl)urea], the IC50 in assay [1] (setting [3]) and in assay [2] (setting [4]) was more than 2500 nM in each case.
With `O=C(NC(CO)c1ccccc1)c1ccn(-c2ccnc(Nc3ccc(F)cc3)c2)c1` (stereo not shown) [Example 84, 1-(2-((4-fluoro-phenyl)amino)pyridin-4-yl)-N-(2-hydroxy-1-phenyl-ethyl)-1H-pyrrole-3-carboxamide], the IC50 in assay [1] (setting [3]) and in assay [2] (setting [4]) was more than 2500 nM in each case.
As to `Cc1cnc(Nc2ccc(N3CCNCC3)cc2)cc1-n1ccc(C(=O)NC(CO)c2ccccc2)c1` (stereo not shown) [Example 83, N-(2-hydroxy-1-phenylethyl)-1-(5-methyl-2-((4-(piperazin-1-yl)-phenyl)amino)-pyridin-4-yl)-1H-pyrrole-3-carboxamide], the IC50 in assay [1] (setting [3]) and in assay [2] (setting [4]) was more than 2500 nM throughout.
As for `Cc1cnc(NC2(CO)CC2)nc1-n1ccc(C(=O)NC(CO)c2ccc(F)c(Cl)c2)c1` (stereo not shown) [Example 203, N-(1-(3-chloro-4-fluorophenyl)-2-hydroxyethyl)-1-(2-((1-(hydroxymethyl)cyclopropyl)amino)-5-methylpyrimidin-4-yl)-1H-pyrrole-3-carboxamide], the IC50 in assay [1] (setting [3]) and in assay [2] (setting [4]) was more than 2500 nM each time.
Take `Cc1cnc(Nc2ccc(F)cc2Cl)nc1-n1ccc(C(=O)N[C@@H](CN(C)C)c2ccccc2)c1` [Example 97, (R)-1-(2-((2-chloro-4-fluorophenyl)amino)-5-methyl-pyrimidin-4-yl)-N-(2-(dimethyl-amino)-1-phenylethyl)-1H-pyrrole-3-carboxamide]: the IC50 in assay [1] (setting [3]) and in assay [2] (setting [4]) was more than 2500 nM throughout.
As to `Cc1cnc(Nc2ccc(F)cc2Cl)cc1-n1cnc(C(=O)NC(CO)c2ccccc2)c1` (stereo not shown) [Example 85, 1-(2-((2-chloro-4-fluorophenyl)amino)-5-methyl-pyridin-4-yl)-N-(2-hydroxy-1-phenylethyl)-1H-imidazole-4-carboxamide], the IC50 in assay [1] (setting [3]) and in assay [2] (setting [4]) was more than 2500 nM in each case.
In the case of `O=C(NC(CO)c1cccc(Cl)c1)c1ccn(-c2ccnc(Nc3ccc(F)cc3Cl)n2)c1` (stereo not shown) [Example 111, 1-(2-((2-chloro-4-fluorophenyl)amino)pyrimidin-4-yl)-N-(1-(3-chlorophenyl)-2-hydroxy-ethyl)-1H-pyrrole-3-carboxamide], the IC50 in assay [1] (setting [3]) and in assay [2] (setting [4]) was more than 2500 nM in each case.

The values are drawn from patent publication US11925629B2, “Heterocyclic inhibitors of ERK1 and ERK2 and their use in the treatment of cancer” (Asana Biosciences, LLC, priority 2015, dated 2024).
